Assay [1] deals with stable HCV 1b RLuc replicon cells (dicistronic genotype 1b Con1 replicon). Briefly: Renilla luciferase HCV replicon reporter assay, genotype 1b. Type of assay: cell-based. The following applies: Hepatitis C virus, 72 h, stable 1b Con1 RLuc replicon cells, 72 hours; read-out: 1b. The method, boiled down: (§1)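 Cells carrying the stable or transiently transfected (Huh-Lunet) dicistronic RLuc replicons received 3-fold serial compound dilutions from 10 mM DMSO stocks. After 72 h, cells were lysed and Renilla luciferase read. DMSO served as the no-inhibition control and ITMN-191 above 100×EC50 as the positive control; EC50 by non-linear regression.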
(In antiviral work, replicon cells carry a viral genome segment that copies itself.)

Assay [2] has as its system stable HCV 1a RLuc replicon cells (dicistronic genotype 1a H77 replicon). Briefly: Renilla luciferase HCV replicon reporter assay, genotype 1a. Type of assay: cell-based. The settings on record: Hepatitis C virus, 72 h, stable 1a H77 RLuc replicon cells. The method, boiled down: as §1
Assay [3] concerns stable HCV 2a JFH-1 Rluc replicon cells (L31 present in NS5A). Briefly: Renilla luciferase HCV replicon reporter assay, genotype 2a JFH-1. It counts as cell-based. The following applies: Hepatitis C virus. In outline:
as §1

The test system of assay [4] is NS5A chimeric genotype 2a JFH-1 replicon with genotype 2a J6 strain NS5A gene (M31 present). Briefly: Replicon assay, genotype 2a J6 NS5A chimera. It counts as cell-based, HCV. The settings on record: Hepatitis C virus. In outline:
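First, 3-fold serial dilutions of compound went onto replicon cells, DMSO serving as no-inhibition control and ITMN-191 at >100×EC50 as positive control. Next came 72 h incubation, lysis and Renilla luciferase measurement. Finally, EC50 was calculated by non-linear regression; replicons covered genotypes 1a H77, 1b Con1, 2a JFH-1 (L31) and J6-NS5A chimera (M31).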

Assay [5] has as its system NS5A chimeric genotype 2a JFH-1 replicon with genotype 2b MD2b-1 strain NS5A gene (M31 present). Briefly: Replicon assay, genotype 2b NS5A chimera. Type of assay: cell-based, HCV. The following applies: Hepatitis C virus. The method, boiled down: as §1
For assay [6], the system named is NS5A chimeric genotype 1b Con1 replicon with genotype 3a S52 strain NS5A gene. Briefly: Replicon assay, genotype 3a NS5A chimera. The settings on record: Hepatitis C virus. It counts as cell-based, HCV.
The subject of assay [7] is NS5A chimeric genotype 1b Con1 replicon with genotype 4a ED43 strain NS5A gene. Briefly: Replicon assay, genotype 4a NS5A chimera. Type of assay: cell-based, HCV. The settings on record: Hepatitis C virus.
Where [8] appears, read: read-out: 2a JFH (nM), genotype 2a JFH-1 replicon (L31 in NS5A), stable cells.
The mark [9] stands for this setting: read-out: 2a JFH, stable 2a JFH-1 Rluc replicon cells, L31 in NS5A, activity range.
Where [10] appears, read: read-out: 2a J6 (t) (nM), genotype 2a J6 NS5A chimeric replicon (M31), transiently transfected (t) into Huh-Lunet cells.
Setting [11] is: read-out: 2a J6 (t), transiently transfected (t) into Huh-Lunet cells, activity range.
Setting [12] is: 2BS, read-out: 2b (s), stably replicating replicon cells (s), activity range.
Setting [13] is: read-out: 2b (s) (nM), genotype 2b MD2b-1 NS5A chimeric replicon (M31), stably replicating replicon cells (s).
Setting [14] is: read-out: 3a (s) (nM), genotype 3a NS5A chimeric replicon, stable replicon cells (s).
[15] abbreviates: read-out: 3a (s), (s), activity range.
Where [16] appears, read: read-out: 4a (s) (nM), genotype 4a NS5A chimeric replicon, stable replicon cells (s).
Setting [17] is: read-out: 4a (s), (s), activity range.

Where two headings read alike, the source gives them in different places.

In the case of `COC(=O)N[C@H](C(=O)N1C[C@@H](C)C[C@H]1c1ncc(-c2ccc3c(c2)COc2cc4c(ccc5nc([C@@H]6C[C@H](C)CN6C(=O)[C@@H](NC(=O)OC)[C@@H](C)OC)[nH]c54)cc2-3)[nH]1)[C@@H](C)OC` [EZ, Methyl [(2S,3R)-3-methoxy-1-{(2S,4S)-2-[9-(2-{(2S,4S)-1-[N-(methoxycarbonyl)-O-methyl-L-threonyl]-4-methylpyrrolidin-2-yl}-1H-imidazol-5-yl)-1,11-dihydroisochromeno[4′,3′:6,7]naphtho[1,2-d]imidazol-2-yl]-4-methylpyrrolidin-1-yl}-1-oxobutan-2-yl]carbamate], the EC50 in assay [1] is 0.084 nM; in assay [2] it was 0.028 nM; in assay [2] (activity range), below 0.1 nM; in assay [3] (setting [8]), 0.016 nM; in assay [3] (setting [9]) it was below 0.1 nM; in assay [4] (setting [10]), 0.036 nM. In addition, the EC50 in assay [4] (setting [11]) was below 0.1 nM; in assay [5] (setting [12]) it was 0.1 to 0.999 nM; in assay [5] (setting [13]), 0.262 nM; in assay [6] (setting [14]), 0.263 nM; in assay [6] (setting [15]), 0.1 to 0.999 nM; in assay [7] (setting [16]), 0.025 nM. The EC50 in assay [7] (setting [17]) is below 0.1 nM.

For the molecule `CC[C@H]1CC[C@@H](c2ncc(-c3ccc4c(c3)COc3cc5c(ccc6nc([C@@H]7C[C@H](C)CN7C(=O)[C@@H](NC(=O)OC)[C@@H](C)OC)[nH]c65)cc3-4)[nH]2)N1C(=O)[C@@H](NC(=O)OC)C(C)C` [GO], the EC50 in assay [1] was 0.028 nM; in assay [2] it was 0.021 nM; in assay [2] (activity range), below 0.1 nM; in assay [3] (setting [8]), 0.025 nM; in assay [3] (setting [9]), below 0.1 nM; in assay [4] (setting [10]) it was 0.112 nM. Further, the EC50 in assay [4] (setting [11]) was 0.1 to 0.999 nM; in assay [5] (setting [12]), 0.1 to 0.999 nM; in assay [5] (setting [13]) it was 0.775 nM; in assay [6] (setting [14]), 1.28 nM; in assay [6] (setting [15]) it was 1 to 44 nM; in assay [7] (setting [16]), 0.029 nM. In addition, the EC50 in assay [7] (setting [17]) was below 0.1 nM.

Take `COC(=O)N[C@H](C(=O)N1[C@@H](C)CC[C@H]1c1nc2ccc3cc4c(cc3c2[nH]1)OCc1cc(-c2cnc([C@@H]3C[C@H](C)CN3C(=O)[C@@H](NC(=O)OC)C3CCOCC3)[nH]2)ccc1-4)C(C)C` [EJ, methyl[(2S)-1-{(2S,5S)-2-[9-(2-{(2S,4S)-1-[(2S)-2-[(methoxycarbonyl)amino]-2-(tetrahydro-2H-pyran-4-yl)acetyl]-4-methylpyrrolidin-2-yl}-1H-imidazol-5-yl)-1,11-dihydroisochromeno[4′,3′:6,7]naphtho[1,2-d]imidazol-2-yl]-5-methylpyrrolidin-1-yl}-3-methyl-1-oxobutan-2-yl]carbamate]: the EC50 in assay [1] is 0.039 nM; in assay [2], 0.016 nM; in assay [2] (activity range), below 0.1 nM; in assay [3] (setting [8]) it was 0.028 nM; in assay [3] (setting [9]) it was below 0.1 nM; in assay [4] (setting [10]), 0.041 nM. Further, the EC50 was below 0.1 nM in assay [4] (setting [11]); 0.1 to 0.999 nM in assay [5] (setting [12]); 0.112 nM in assay [5] (setting [13]); 0.081 nM in assay [6] (setting [14]); below 0.1 nM in assay [6] (setting [15]); 0.046 nM in assay [6] (read-out: 3a (t) (nM), genotype 3a NS5A chimeric replicon, transiently transfected (t)). The EC50 is below 0.1 nM in assay [6] (read-out: 3a (t), transiently transfected (t) into Huh-Lunet cells, activity range); 0.017 nM in assay [7] (setting [16]); below 0.1 nM in assay [7] (setting [17]).

For the molecule `CC[C@H]1CC[C@@H](c2nc3ccc4cc5c(cc4c3[nH]2)OCc2cc(-c3cnc([C@@H]4CC[C@H](C)N4C(=O)[C@@H](NC(=O)OC)C(C)C)[nH]3)ccc2-5)N1C(=O)[C@@H](NC(=O)OC)[C@@H](C)O` [GS], the EC50 in assay [1] is 0.021 nM; in assay [2], 0.018 nM; in assay [2] (activity range) it was below 0.1 nM; in assay [3] (setting [8]) it was 0.017 nM; in assay [3] (setting [9]) it was below 0.1 nM; in assay [4] (setting [10]), 0.116 nM. The EC50 in assay [4] (setting [11]) is 0.1 to 0.999 nM; in assay [5] (setting [12]) it was 0.1 to 0.999 nM; in assay [5] (setting [13]), 0.372 nM; in assay [6] (setting [14]), 0.271 nM; in assay [6] (setting [15]), 0.1 to 0.999 nM; in assay [7] (setting [16]), 0.017 nM. The EC50 in assay [7] (setting [17]) is below 0.1 nM.

As to `CC[C@H]1CC[C@@H](c2nc3ccc4cc5c(cc4c3[nH]2)OCc2cc(-c3cnc([C@@H]4CC[C@H](C)N4C(=O)[C@@H](NC(=O)OC)C4CCOCC4)[nH]3)ccc2-5)N1C(=O)[C@@H](NC(=O)OC)C(C)C` [IR], the EC50 in assay [1] was 0.021 nM; in assay [2] it was 0.018 nM; in assay [2] (activity range) it was below 0.1 nM; in assay [3] (setting [8]) it was 0.018 nM; in assay [3] (setting [9]), below 0.1 nM; in assay [4] (setting [10]), 0.084 nM. For the same molecule, the EC50 in assay [4] (setting [11]) is below 0.1 nM; in assay [5] (setting [12]), below 0.1 nM; in assay [5] (setting [13]) it was 0.081 nM; in assay [6] (setting [14]) it was 0.091 nM; in assay [6] (setting [15]), below 0.1 nM; in assay [7] (setting [16]) it was 0.017 nM. For the same molecule, the EC50 in assay [7] (setting [17]) was below 0.1 nM.

For `CC[C@H]1C[C@@H](c2ncc(-c3ccc4c(c3)COc3cc5c(ccc6nc([C@@H]7CC[C@H](C)N7C(=O)[C@@H](NC(=O)OC)C(C)C)[nH]c65)cc3-4)[nH]2)N(C(=O)[C@@H](NC(=O)OC)C(C)C)C1` [GW], the EC50 in assay [1] was 0.015 nM; in assay [2], 0.017 nM; in assay [2] (activity range), below 0.1 nM; in assay [3] (setting [8]), 0.018 nM; in assay [3] (setting [9]) it was below 0.1 nM; in assay [4] (setting [10]) it was 0.771 nM. For the same molecule, the EC50 in assay [4] (setting [11]) was 0.1 to 0.999 nM; in assay [5] (setting [12]), 1 to 44 nM; in assay [5] (setting [13]), 2.41 nM; in assay [6] (setting [14]) it was 0.127 nM; in assay [6] (setting [15]), 0.1 to 0.999 nM; in assay [7] (setting [16]), 0.01 nM. Further, the EC50 in assay [7] (setting [17]) is below 0.1 nM.

Consider `CC[C@H]1CC[C@@H](c2nc3ccc4cc5c(cc4c3[nH]2)OCc2cc(-c3cnc([C@@H]4CC[C@H](CC)N4C(=O)[C@@H](NC(=O)OC)C4CCOCC4)[nH]3)ccc2-5)N1C(=O)[C@@H](NC(=O)OC)C(C)C` [II], for which the EC50 was 0.033 nM in assay [1]; 0.024 nM in assay [2]; below 0.1 nM in assay [2] (activity range); 0.029 nM in assay [3] (setting [8]); below 0.1 nM in assay [3] (setting [9]); 0.209 nM in assay [4] (setting [10]). The EC50 in assay [4] (setting [11]) was 0.1 to 0.999 nM; in assay [5] (setting [12]), 0.1 to 0.999 nM; in assay [5] (setting [13]), 0.197 nM; in assay [6] (setting [14]), 0.701 nM; in assay [6] (setting [15]) it was 0.1 to 0.999 nM; in assay [7] (setting [16]), 0.016 nM. For the same molecule, the EC50 in assay [7] (setting [17]) is below 0.1 nM.

`CC[C@H]1CC[C@@H](c2ncc(-c3ccc4c(c3)COc3cc5c(ccc6nc([C@@H]7CC[C@H](C)N7C(=O)[C@@H](NC(=O)OC)[C@@H](C)OC)[nH]c65)cc3-4)[nH]2)N1C(=O)[C@H](C)NC(=O)OC` [GP]: the EC50 in assay [1] was 0.027 nM; in assay [2], 0.018 nM; in assay [2] (activity range) it was below 0.1 nM; in assay [3] (setting [8]), 0.027 nM; in assay [3] (setting [9]), below 0.1 nM; in assay [4] (setting [10]) it was 1.07 nM. The EC50 in assay [4] (setting [11]) is 1 to 44 nM; in assay [5] (setting [12]), 1 to 44 nM; in assay [5] (setting [13]), 2.33 nM; in assay [6] (setting [14]), 0.571 nM; in assay [6] (setting [15]), 0.1 to 0.999 nM; in assay [7] (setting [16]), 0.031 nM. The EC50 in assay [7] (setting [17]) is below 0.1 nM.

As for `CC[C@H]1C[C@@H](c2nc3ccc4cc5c(cc4c3[nH]2)OCc2cc(-c3cnc([C@@H]4CC[C@H](C)N4C(=O)[C@@H](NC(=O)OC)C(C)C)[nH]3)ccc2-5)N(C(=O)[C@@H](NC(=O)OC)C(C)C)C1` [GT], the EC50 was 0.021 nM in assay [1]; 0.017 nM in assay [2]; below 0.1 nM in assay [2] (activity range); 0.028 nM in assay [3] (setting [8]); below 0.1 nM in assay [3] (setting [9]); 0.257 nM in assay [4] (setting [10]). For the same molecule, the EC50 in assay [4] (setting [11]) was 0.1 to 0.999 nM; in assay [5] (setting [12]), 1 to 44 nM; in assay [5] (setting [13]) it was 1.73 nM; in assay [6] (setting [14]), 0.187 nM; in assay [6] (setting [15]) it was 0.1 to 0.999 nM; in assay [7] (setting [16]) it was 0.031 nM. Further, in assay [7] (setting [17]), the EC50 is below 0.1 nM.

Values taken from patent US10800789B2, “Antiviral compounds” (Gilead Pharmasset LLC, priority 2012, dated 2020).
